Tests used:
Assay in all cases: scanMAX Kinase assay panel
Format in all cases: binding
Conditions in all cases: read-out: % control
AKT2 = AKT2 (Homo sapiens (Human), UniProt P31751)
Procedure, shortened: (§1)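 Selectivity was measured on the scanMAX platform. The compound signal minus the positive-control signal was divided by the DMSO-minus-positive-control window and multiplied by 100.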

MKNK1 = MKNK1 (Homo sapiens (Human), UniProt Q9BUB5)
Procedure, shortened: as §1

VPS34 = VPS34 (Homo sapiens (Human), UniProt Q8NEB9)
Procedure, shortened: as §1

JNK2 = JNK2 (Homo sapiens (Human), UniProt P45984)
Procedure, shortened: as §1

CSF1R-autoinhibited = CSF1R-autoinhibited (Homo sapiens (Human), UniProt P07333)
Procedure, shortened: as §1

YSK4 = YSK4 (Homo sapiens (Human), UniProt Q56UN5)
Procedure, shortened: as §1

MAP3K3 = MAP3K3 (Homo sapiens (Human), UniProt Q99759)
Procedure, shortened: as §1

ASK2 = ASK2 (Homo sapiens (Human), UniProt O95382)
Procedure, shortened: as §1

MAP4K4 = MAP4K4 (Homo sapiens (Human), UniProt O95819)
Procedure, shortened: as §1

DCAMKL3 = DCAMKL3 (Homo sapiens (Human), UniProt Q9C098)
Procedure, shortened: as §1

LOK = LOK (Homo sapiens (Human), UniProt O94804)
Procedure, shortened: as §1

CSNK1A1L = CSNK1A1L (Homo sapiens (Human), UniProt Q8N752)
Procedure, shortened: as §1

HASPIN = HASPIN (Homo sapiens (Human), UniProt Q8TF76)
Procedure, shortened: as §1

MST1R = MST1R (Homo sapiens (Human), UniProt Q04912)
Procedure, shortened: as §1

PLK2 = PLK2 (Homo sapiens (Human), UniProt Q9NYY3)
Procedure, shortened: as §1

LRRK2 = LRRK2 (Homo sapiens (Human), UniProt Q5S007)
Procedure, shortened: as §1

PHKG2 = PHKG2 (Homo sapiens (Human), UniProt P15735)
Procedure, shortened: as §1

CAMK4 = CAMK4 (Homo sapiens (Human), UniProt Q16566)
Procedure, shortened: as §1

ICK = ICK (Homo sapiens (Human), UniProt Q9UPZ9)
Procedure, shortened: as §1

PAK2 = PAK2 (Homo sapiens (Human), UniProt Q13177)
Procedure, shortened: as §1

CDK4-cyclinD3 = CDK4-cyclinD3 (Homo sapiens (Human), UniProt P11802)
Procedure, shortened: as §1

DAPK2 = DAPK2 (Homo sapiens (Human), UniProt Q9UIK4)
Procedure, shortened: as §1

PLK4 = PLK4 (Homo sapiens (Human), UniProt O00444)
Procedure, shortened: as §1

MET(Y1235D) = MET(Y1235D) (Homo sapiens (Human), UniProt P08581, Y1235D)
Procedure, shortened: as §1

RIPK5 = RIPK5 (Homo sapiens (Human), UniProt Q6XUX3)
Procedure, shortened: as §1

MAP3K15 = MAP3K15 (Homo sapiens (Human), UniProt Q6ZN16)
Procedure, shortened: as §1

[1] = target: ABL1(T315I)-phosphorylated (Homo sapiens (Human), UniProt P00519, T315I)
Procedure, shortened: as §1

IRAK4 = IRAK4 (Homo sapiens (Human), UniProt Q9NWZ3)
Procedure, shortened: as §1

SNRK = SNRK (Homo sapiens (Human), UniProt Q9NRH2)
Procedure, shortened: as §1

PRKD1 = PRKD1 (Homo sapiens (Human), UniProt Q15139)
Procedure, shortened: as §1

PIK3CA(H1047L) = PIK3CA(H1047L) (Homo sapiens (Human), UniProt P42336, H1047L)
Procedure, shortened: as §1

RIPK4 = RIPK4 (Homo sapiens (Human), UniProt P57078)
Procedure, shortened: as §1

ACVR2A = ACVR2A (Homo sapiens (Human), UniProt P27037)
Procedure, shortened: as §1

YANK3 = YANK3 (Homo sapiens (Human), UniProt Q86UX6)
Procedure, shortened: as §1

LZK = LZK (Homo sapiens (Human), UniProt O43283)
Procedure, shortened: as §1

FLT3(K663Q) = FLT3(K663Q) (Homo sapiens (Human), UniProt P36888, K663Q)
Procedure, shortened: as §1

PIK3CA(E542K) = PIK3CA(E542K) (Homo sapiens (Human), UniProt P42336, E542K)
Procedure, shortened: as §1

CDC2L2 = CDC2L2 (Homo sapiens (Human), UniProt Q9UQ88)
Procedure, shortened: as §1

ANKK1 = ANKK1 (Homo sapiens (Human), UniProt Q8NFD2)
Procedure, shortened: as §1

MAP4K4, sequence (O95819 whole entry): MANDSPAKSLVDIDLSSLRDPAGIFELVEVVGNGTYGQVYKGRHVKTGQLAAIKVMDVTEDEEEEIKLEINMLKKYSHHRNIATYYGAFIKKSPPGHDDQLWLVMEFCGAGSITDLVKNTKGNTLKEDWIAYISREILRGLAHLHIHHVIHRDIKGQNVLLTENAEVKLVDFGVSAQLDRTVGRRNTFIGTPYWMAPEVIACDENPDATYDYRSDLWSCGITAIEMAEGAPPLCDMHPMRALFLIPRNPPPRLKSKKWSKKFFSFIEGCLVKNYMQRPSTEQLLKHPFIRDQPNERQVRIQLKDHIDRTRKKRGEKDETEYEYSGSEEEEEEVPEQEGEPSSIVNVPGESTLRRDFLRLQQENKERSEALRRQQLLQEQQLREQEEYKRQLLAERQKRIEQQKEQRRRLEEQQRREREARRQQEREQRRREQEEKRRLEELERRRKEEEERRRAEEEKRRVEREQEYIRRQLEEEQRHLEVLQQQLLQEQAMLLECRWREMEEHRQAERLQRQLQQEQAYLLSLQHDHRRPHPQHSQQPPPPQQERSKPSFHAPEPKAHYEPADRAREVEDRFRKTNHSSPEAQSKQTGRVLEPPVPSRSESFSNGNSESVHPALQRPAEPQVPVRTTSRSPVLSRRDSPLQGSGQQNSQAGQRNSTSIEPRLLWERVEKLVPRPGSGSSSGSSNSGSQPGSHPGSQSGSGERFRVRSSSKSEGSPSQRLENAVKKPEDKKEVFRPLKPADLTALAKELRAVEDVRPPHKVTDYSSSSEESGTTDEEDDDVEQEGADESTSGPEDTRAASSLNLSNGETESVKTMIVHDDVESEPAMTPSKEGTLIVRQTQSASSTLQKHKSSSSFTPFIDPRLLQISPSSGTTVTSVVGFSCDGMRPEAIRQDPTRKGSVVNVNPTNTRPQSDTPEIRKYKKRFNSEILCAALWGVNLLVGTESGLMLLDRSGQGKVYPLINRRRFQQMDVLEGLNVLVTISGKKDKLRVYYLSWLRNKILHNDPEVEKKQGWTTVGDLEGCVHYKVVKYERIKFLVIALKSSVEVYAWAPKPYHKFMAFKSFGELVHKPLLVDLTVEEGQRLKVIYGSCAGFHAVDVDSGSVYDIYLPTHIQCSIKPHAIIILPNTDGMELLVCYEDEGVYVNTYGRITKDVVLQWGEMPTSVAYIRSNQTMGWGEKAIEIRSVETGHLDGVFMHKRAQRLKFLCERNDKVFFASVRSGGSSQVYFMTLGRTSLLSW
YANK3, sequence (Q86UX6 whole entry): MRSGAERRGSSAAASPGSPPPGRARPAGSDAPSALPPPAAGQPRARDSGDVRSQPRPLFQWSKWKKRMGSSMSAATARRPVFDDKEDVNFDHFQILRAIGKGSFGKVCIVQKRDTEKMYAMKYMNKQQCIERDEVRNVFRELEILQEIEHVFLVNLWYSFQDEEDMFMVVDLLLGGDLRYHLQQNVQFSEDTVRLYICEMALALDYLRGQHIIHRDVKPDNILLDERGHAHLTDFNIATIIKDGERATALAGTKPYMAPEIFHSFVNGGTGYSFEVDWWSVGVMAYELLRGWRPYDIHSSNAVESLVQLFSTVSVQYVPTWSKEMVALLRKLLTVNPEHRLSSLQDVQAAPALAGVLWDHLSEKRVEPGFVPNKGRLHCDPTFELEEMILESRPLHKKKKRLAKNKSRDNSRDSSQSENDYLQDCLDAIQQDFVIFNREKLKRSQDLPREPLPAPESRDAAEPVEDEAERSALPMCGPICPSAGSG
CSNK1A1L, sequence (Q8N752 whole entry): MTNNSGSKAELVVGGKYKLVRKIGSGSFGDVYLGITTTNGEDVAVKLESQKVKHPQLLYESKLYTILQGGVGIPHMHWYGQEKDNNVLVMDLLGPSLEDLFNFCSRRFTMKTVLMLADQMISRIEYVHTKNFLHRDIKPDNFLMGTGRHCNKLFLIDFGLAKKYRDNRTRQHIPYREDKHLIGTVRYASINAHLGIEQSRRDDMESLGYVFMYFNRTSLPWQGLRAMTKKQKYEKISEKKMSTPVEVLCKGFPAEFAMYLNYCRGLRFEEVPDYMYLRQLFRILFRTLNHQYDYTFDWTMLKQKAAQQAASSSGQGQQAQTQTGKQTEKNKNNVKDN
PIK3CA(E542K), sequence (P42336 whole entry E542K): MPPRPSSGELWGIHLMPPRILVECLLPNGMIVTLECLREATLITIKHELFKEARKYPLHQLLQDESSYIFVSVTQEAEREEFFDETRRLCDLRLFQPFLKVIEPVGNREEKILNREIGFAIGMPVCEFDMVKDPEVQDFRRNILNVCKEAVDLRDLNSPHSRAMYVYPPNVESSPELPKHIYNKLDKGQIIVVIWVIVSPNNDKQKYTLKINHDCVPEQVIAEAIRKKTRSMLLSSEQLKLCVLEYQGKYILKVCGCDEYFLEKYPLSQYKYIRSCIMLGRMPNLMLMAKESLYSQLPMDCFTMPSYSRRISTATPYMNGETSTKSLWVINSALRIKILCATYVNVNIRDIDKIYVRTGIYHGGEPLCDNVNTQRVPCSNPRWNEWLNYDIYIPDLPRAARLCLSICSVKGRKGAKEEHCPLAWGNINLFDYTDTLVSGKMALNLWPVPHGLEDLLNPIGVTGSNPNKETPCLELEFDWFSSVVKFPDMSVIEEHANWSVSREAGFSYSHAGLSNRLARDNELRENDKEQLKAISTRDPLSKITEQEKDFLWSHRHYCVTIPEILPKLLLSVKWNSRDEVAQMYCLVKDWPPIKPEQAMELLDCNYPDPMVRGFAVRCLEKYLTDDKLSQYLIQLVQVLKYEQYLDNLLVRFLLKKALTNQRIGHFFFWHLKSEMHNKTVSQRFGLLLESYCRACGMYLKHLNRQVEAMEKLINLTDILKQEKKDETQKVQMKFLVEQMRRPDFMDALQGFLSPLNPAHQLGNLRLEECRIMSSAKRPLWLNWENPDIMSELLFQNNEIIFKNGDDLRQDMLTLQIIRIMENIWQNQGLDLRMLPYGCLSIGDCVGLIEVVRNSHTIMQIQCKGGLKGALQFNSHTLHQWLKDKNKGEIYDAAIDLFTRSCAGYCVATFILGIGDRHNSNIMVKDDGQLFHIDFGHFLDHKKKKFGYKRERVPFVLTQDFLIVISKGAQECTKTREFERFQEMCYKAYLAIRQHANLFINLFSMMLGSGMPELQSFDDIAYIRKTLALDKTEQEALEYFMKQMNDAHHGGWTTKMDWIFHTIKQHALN
LZK, sequence (O43283 whole entry): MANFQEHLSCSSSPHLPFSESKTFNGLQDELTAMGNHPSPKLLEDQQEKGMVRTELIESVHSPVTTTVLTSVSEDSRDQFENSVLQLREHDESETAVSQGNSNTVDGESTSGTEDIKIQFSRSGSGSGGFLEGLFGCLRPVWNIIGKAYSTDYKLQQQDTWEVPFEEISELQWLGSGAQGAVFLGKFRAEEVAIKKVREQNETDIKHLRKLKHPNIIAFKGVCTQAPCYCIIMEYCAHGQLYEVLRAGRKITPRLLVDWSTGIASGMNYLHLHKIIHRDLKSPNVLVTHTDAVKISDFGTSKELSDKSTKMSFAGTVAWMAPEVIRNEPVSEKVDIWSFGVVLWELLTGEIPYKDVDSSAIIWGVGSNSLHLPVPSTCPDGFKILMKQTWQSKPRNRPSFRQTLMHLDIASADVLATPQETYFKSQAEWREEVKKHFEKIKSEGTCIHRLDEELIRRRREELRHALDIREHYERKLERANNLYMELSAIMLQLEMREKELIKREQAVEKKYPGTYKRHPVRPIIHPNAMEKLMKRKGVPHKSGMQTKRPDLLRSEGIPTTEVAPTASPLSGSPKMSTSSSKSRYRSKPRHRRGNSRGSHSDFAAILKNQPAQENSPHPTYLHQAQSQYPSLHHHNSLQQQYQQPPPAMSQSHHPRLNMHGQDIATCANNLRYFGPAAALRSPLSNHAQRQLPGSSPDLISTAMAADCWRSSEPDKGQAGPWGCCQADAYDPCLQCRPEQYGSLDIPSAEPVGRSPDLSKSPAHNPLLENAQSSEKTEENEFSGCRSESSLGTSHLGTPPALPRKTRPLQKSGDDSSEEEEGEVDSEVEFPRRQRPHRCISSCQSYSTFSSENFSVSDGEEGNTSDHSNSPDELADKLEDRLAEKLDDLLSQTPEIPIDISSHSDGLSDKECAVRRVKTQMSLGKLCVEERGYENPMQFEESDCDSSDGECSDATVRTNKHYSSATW
PIK3CA(H1047L), sequence (P42336 whole entry H1047L): as the sequence (P42336 whole entry E542K) above, with K542E, H1047L counted along it
PRKD1, sequence (Q15139 whole entry): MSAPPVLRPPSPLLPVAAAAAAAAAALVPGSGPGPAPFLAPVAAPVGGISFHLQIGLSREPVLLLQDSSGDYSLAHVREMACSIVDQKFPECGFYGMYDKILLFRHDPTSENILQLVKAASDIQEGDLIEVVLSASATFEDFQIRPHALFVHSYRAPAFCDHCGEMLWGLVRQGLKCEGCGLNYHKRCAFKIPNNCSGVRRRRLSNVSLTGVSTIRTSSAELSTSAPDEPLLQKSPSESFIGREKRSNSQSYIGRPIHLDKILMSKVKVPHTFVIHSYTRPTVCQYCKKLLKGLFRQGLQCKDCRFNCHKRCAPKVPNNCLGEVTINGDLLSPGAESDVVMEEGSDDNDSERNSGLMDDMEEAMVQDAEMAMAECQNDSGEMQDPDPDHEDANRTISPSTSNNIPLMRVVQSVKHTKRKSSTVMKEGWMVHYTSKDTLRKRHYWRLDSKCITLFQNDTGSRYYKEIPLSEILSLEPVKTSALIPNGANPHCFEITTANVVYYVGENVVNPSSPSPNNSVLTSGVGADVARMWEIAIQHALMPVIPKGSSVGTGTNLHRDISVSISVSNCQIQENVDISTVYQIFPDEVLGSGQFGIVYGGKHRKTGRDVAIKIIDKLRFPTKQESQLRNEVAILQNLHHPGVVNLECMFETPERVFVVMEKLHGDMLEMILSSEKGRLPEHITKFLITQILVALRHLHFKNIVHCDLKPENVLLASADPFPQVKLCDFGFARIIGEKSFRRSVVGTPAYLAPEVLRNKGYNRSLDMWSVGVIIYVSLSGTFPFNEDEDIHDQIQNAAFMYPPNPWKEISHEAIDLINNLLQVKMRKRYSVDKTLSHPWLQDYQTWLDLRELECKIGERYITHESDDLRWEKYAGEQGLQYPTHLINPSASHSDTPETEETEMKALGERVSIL

SMILES | remaining binding at 1 µM (AKT2) [%] | remaining binding at 1 µM (MKNK1) [%] | remaining binding at 1 µM (VPS34) [%] | remaining binding at 1 µM (JNK2) [%] | remaining binding at 1 µM (CSF1R-autoinhibited) [%] | remaining binding at 1 µM (YSK4) [%] | remaining binding at 1 µM (MAP3K3) [%] | remaining binding at 1 µM (ASK2) [%] | remaining binding at 1 µM (MAP4K4) [%] | remaining binding at 1 µM (DCAMKL3) [%] | remaining binding at 1 µM (LOK) [%] | remaining binding at 1 µM (CSNK1A1L) [%] | remaining binding at 1 µM (HASPIN) [%] | remaining binding at 1 µM (MST1R) [%] | remaining binding at 1 µM (PLK2) [%] | remaining binding at 1 µM (LRRK2) [%] | remaining binding at 1 µM (PHKG2) [%] | remaining binding at 1 µM (CAMK4) [%] | remaining binding at 1 µM (ICK) [%] | remaining binding at 1 µM (PAK2) [%] | further results
CCNc1cc(Nc2ccc(C(=O)N3CCC(N4CCOCC4)CC3)cc2OC)nc2[nH]cc(C#N)c12 [Example 18, 4-(ethylamino)-6-((2-methoxy-4-(4-morpholinopiperidine-1-carbonyl)phenyl)amino)-1H-pyrrolo[2,3-b]pyridine-3-carbonitrile] | 87 | 93 | 96 | 0.1 | 51 | 6.7 | 70 | 82 | 100 | 84 | 91 | 3.1 | 7.6 | 81 | 81 | 1.1 | 12 | 76 | 84 | 82 | remaining binding at 1 µM (CDK4-cyclinD3): 100%; remaining binding at 1 µM (DAPK2): 16%; remaining binding at 1 µM (PLK4): 40%; remaining binding at 1 µM (MET(Y1235D)): 100%; remaining binding at 1 µM (RIPK5): 18%; remaining binding at 1 µM (MAP3K15): 53%; remaining binding at 1 µM [1]: 100%; remaining binding at 1 µM (IRAK4): 99%; remaining binding at 1 µM (SNRK): 100%; remaining binding at 1 µM (PRKD1): 14%; remaining binding at 1 µM (PIK3CA(H1047L)): 85%; remaining binding at 1 µM (RIPK4): 69%; remaining binding at 1 µM (ACVR2A): 100%; remaining binding at 1 µM (YANK3): 96%; remaining binding at 1 µM (LZK): 100%; remaining binding at 1 µM (FLT3(K663Q)): 84%; remaining binding at 1 µM (PIK3CA(E542K)): 96%; remaining binding at 1 µM (CDC2L2): 86%; remaining binding at 1 µM (ANKK1): 78%
CCNc1cc(Nc2ccc(C(=O)N3CCC(N4CCOCC4)CC3)cc2OC)nc2[nH]cc(C(F)(F)F)c12 [Example 57, (4-((4-(ethylamino)-3-(trifluoromethyl)-1H-pyrrolo[2,3-b]pyridin-6-yl)amino)-3-methoxyphenyl) (4-morpholinopiperidin-1-yl)methanone] | 90 | 100 | 79 | 52 | 83 | 100 | 75 | 92 | 100 | 88 | 84 | 71 | 70 | 70 | 90 | 48 | 23 | 88 | 100 | 40 | remaining binding at 1 µM (CDK4-cyclinD3): 100%; remaining binding at 1 µM (DAPK2): 71%; remaining binding at 1 µM (PLK4): 47%; remaining binding at 1 µM (MET(Y1235D)): 85%; remaining binding at 1 µM (RIPK5): 79%; remaining binding at 1 µM (MAP3K15): 100%; remaining binding at 1 µM [1]: 96%; remaining binding at 1 µM (IRAK4): 100%; remaining binding at 1 µM (SNRK): 100%; remaining binding at 1 µM (PRKD1): 73%; remaining binding at 1 µM (PIK3CA(H1047L)): 100%; remaining binding at 1 µM (RIPK4): 95%; remaining binding at 1 µM (ACVR2A): 99%; remaining binding at 1 µM (YANK3): 71%; remaining binding at 1 µM (LZK): 100%; remaining binding at 1 µM (FLT3(K663Q)): 94%; remaining binding at 1 µM (PIK3CA(E542K)): 100%; remaining binding at 1 µM (CDC2L2): 88%; remaining binding at 1 µM (ANKK1): 100%
